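A five-concentration, 48-hour dose response in 96-well plates underlies each endpoint, interpolated linearly between surrounding concentrations. Here, GI50 denotes the concentration required for 50% inhibition of growth.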 Calls of active or inactive are those of the source. Cut-off read from the data, not from the text of the source: active = GI50 up to about 1.1 µM and inactive = higher.
How the values were obtained:
Assay in all cases: NCI tumour cell line growth inhibition, 48 h
[1] = test system: A498
[2] = test system: A549
[3] = test system: ACHN
[4] = test system: BT-549
[5] = test system: COLO 205
[6] = test system: HOP-62
[7] = test system: HT-29
[8] = test system: Hs-578T
[9] = test system: M14
[10] = test system: MCF7
[11] = test system: MDA-MB-231
[12] = test system: MOLT-4
[13] = test system: NCI-H23
[14] = test system: NCI-H460
[15] = test system: NCI-H522
[16] = test system: OVCAR-3
[17] = test system: SF-268
[18] = test system: SF-295
[19] = test system: SN12C

Structure (SMILES) | GI50 [1] | GI50 [2] | GI50 [3] | GI50 [4] | GI50 [5] | GI50 [6] | GI50 [7] | GI50 [8] | GI50 [9] | GI50 [10] | GI50 [11] | GI50 [12] | GI50 [13] | GI50 [14] | GI50 [15] | GI50 [16] | GI50 [17] | GI50 [18] | GI50 [19]
Cc1ccc(C(=O)Cc2nc3ncccc3[nH]c2=O)cc1 | > 100 µM (inactive) | 12.8 µM (inactive) | 25.7 µM (inactive) | 43.7 µM (inactive) | 58.9 µM (inactive) | 26 µM (inactive) | 59.6 µM (inactive) | 13.3 µM (inactive) | 82.8 µM (inactive) | 49.9 µM (inactive) | 24.9 µM (inactive) | 70.3 µM (inactive) | 9.29 µM (inactive) | 45.4 µM (inactive) | 48.3 µM (inactive) | 40.1 µM (inactive) | 41.6 µM (inactive) | 45.4 µM (inactive) | 55.5 µM (inactive)
COc1cc(C)c(C2NC(=O)c3ccccc3N2)cc1C (centres undefined) | 0.312 µM (active) | 0.596 µM (active) | 0.47 µM (active) | 0.476 µM (active) | 0.313 µM (active) | 1.36 µM (inactive) | 0.321 µM (active) | 0.234 µM (active) | 0.316 µM (active) | 0.957 µM (active) | 0.968 µM (active) | 1.04 µM (active) | 2.51 µM (inactive) | 0.342 µM (active) | 0.254 µM (active) | 0.127 µM (active) | 0.518 µM (active) | 0.243 µM (active) | 0.692 µM (active)
OC1(C2(c3ccc(Cl)cc3)CCCC2)c2ccccc2C2=NCCN21 (centres undefined) | 15.7 µM (inactive) | 15.8 µM (inactive) | 16.7 µM (inactive) | 16.8 µM (inactive) | 10.3 µM (inactive) | 17.4 µM (inactive) | 10.8 µM (inactive) | 36.3 µM (inactive) | 14.2 µM (inactive) | 17.5 µM (inactive) | 14.8 µM (inactive) | 13.3 µM (inactive) | 18.7 µM (inactive) | 14.3 µM (inactive) | 16.2 µM (inactive) | 16.4 µM (inactive) | 17.5 µM (inactive) | 16.5 µM (inactive) | 17.5 µM (inactive)
N#Cc1cc(-c2nc3c(F)cccc3s2)ccc1N | > 100 µM (inactive) | > 100 µM (inactive) | > 100 µM (inactive) | > 100 µM (inactive) | 71.4 µM (inactive) | > 100 µM (inactive) | > 100 µM (inactive) | > 100 µM (inactive) | > 100 µM (inactive) | 0.133 µM (active) | > 100 µM (inactive) | > 100 µM (inactive) | > 100 µM (inactive) | 20.5 µM (inactive) | > 100 µM (inactive) | 96.4 µM (inactive) | > 100 µM (inactive) | > 100 µM (inactive) | > 100 µM (inactive)
COc1ccc2c(c1)/c(=C/C#N)c1c3ccccc3[n+](C)n21 | 1.7 µM (inactive) | 3.39 µM (inactive) | 9.38 µM (inactive) | 9.08 µM (inactive) | 2.34 µM (inactive) | 5.73 µM (inactive) | 2.24 µM (inactive) | 8.55 µM (inactive) | 6.87 µM (inactive) | 6.1 µM (inactive) | 24 µM (inactive) | 3.3 µM (inactive) | 5.3 µM (inactive) | 7.23 µM (inactive) | 4.33 µM (inactive) | 1.34 µM (inactive) | 8.71 µM (inactive) | 7.69 µM (inactive) | 7 µM (inactive)
CN(Cc1cnc2c(n1)C(N)=NN(N)N2)c1ccc(C(=O)NC(CCP(=O)(O)O)C(=O)O)cc1 (centres undefined) | 36.5 µM (inactive) | 2.43 µM (inactive) | 2.17 µM (inactive) | 16 µM (inactive) | > 31.5 µM (inactive) | > 100 µM (inactive) | 9.51 µM (inactive) | > 100 µM (inactive) | 4.53 µM (inactive) | 2.18 µM (inactive) | > 100 µM (inactive) | 5.42 µM (inactive) | 14.9 µM (inactive) | 1.87 µM (inactive) | 26.4 µM (inactive) | > 100 µM (inactive) | 1.21 µM (inactive) | 3.08 µM (inactive) | > 63.2 µM (inactive)

Source: ChEMBL document CHEMBL1201862, “PubChem BioAssay data set” (2004)
